Measured values taken from patent US11298339B2 (priority 2017, dated 2022).

Legend:
Type in all cases: in vivo, C57BL/6J mice
[1] = system: HBV; experiment: Comparison of Compound 1 and Birinapant in chronic HBV infection mouse model (pAAV-HBV1.2 plasmid); details: for proportion of mice with serum HBsAg levels below the lower limit of detection: after 4 weeks of administration; for serum HBsAg level (individual): after one week of drug treatment
Description: Among them, there were 7 mice in each of Group A and Group B, and 6 mice in Group C. Compound 1 and Birinapant were administered once a week for five consecutive weeks. Blood was collected at orbital margin each week before the administration, and the HBsAg/HBeAg levels in supernatant were detected using Roche 601 instrument.

[2] = system: HBV; experiment: Compound 1 in combination with IFNα2a in chronic HBV infection mouse model (pAAV-HBV1.2 plus pKCMvint IFNα-2a or control plasmid)
Description: One day after modeling, the mice were divided into 4 groups. […] There were 5 mice in each group (except Group D that included 7 mice), the administration was performed for consecutive 3 times, i.e., on the day 1 after modeling, and on the days 7 and 14 after modeling; blood was collected once at orbital margin one day before the administration, and serum HBsAg/HBeAg levels were detected using Roche 601 instrument.

[3] = system: HBV-specific T cell response; experiment: HBV immune response in mice: liver lymphocyte counts and HBV-specific T cell response (flow cytometry, Core93-100 stimulation); details: 20 mg/kg once a week x4, 7th week
Description: There were 5 to 6 mice in each group, which were administered once a week for four consecutive times, and sacrificed on the 7th week, the mice liver lymphocytes were isolated, and cell counts and flow cytometry were used to detect the expression of CD4 and CD8 molecules in lymphocytes in the liver. The detection of HBV-specific T cell response was performed by using HBV core monopeptide (Core93-100) to stimulate lymphocytes, and the counts of CD4+ and CD8+ T cells that secreted IFNγ, TNFα and IL-2 were detected by flow cytometry cytokine intracellular staining method.

[4] = system: HBcAg-positive liver cells; experiment: Apoptosis of HBV-infected liver cells, HBcAg immunofluorescence and Tunnel double staining, rAAV8-HBV1.3 virus injection mouse model; details: 20 mg/kg i.v.; 12 h after injection
Description: (§1) Chronic HBV infection mouse models were established by high-pressure tail vein injection of pAAV-HBV1.2 plasmid or recombinant virus rAAV8-1.3HBV injection of C57BL/6J mice (6 to 8 weeks of age, weight 20 f 2 g). […] Glutamic-oxalacetic transaminase (AST/GOT) kit (Nanjing Jiancheng, C010-2) and glutamic-pyruvic transaminase (ALT/GPT) kit (Nanjing Jiancheng, C009-2) were used to detect serum ALT and AST levels. Western blot was used to detect the expression of cIAPs molecules in liver tissues, and β-actin was used as a control. Intrahepatic inflammation and hepatocyte necrosis were detected by HE staining of liver tissue sections.

[5] = system: HBV; experiment: Compound 1 in combination with anti-PD1 antibody in chronic HBV infection mouse model (pAAV-HBV1.2 plasmid)
Excerpt: Among them, there were 7 mice in each group.

[6] = system: HBV; experiment: Compound 1 and SF18 in mouse model established by rAAV8-HBV1.3 (ayw) virus tail vein injection; details: 20 mg/kg i.v.
Description: Among them, there were 3 mice in each group. Administration was carried out for consecutive four weeks, blood was collected at orbital margin once per week, and HBsAg/HBeAg levels in supernatant were detected by Roche 601 instrument.

[7] = system: HBV; experiment: Compound 1 in combination with TDF in pAAV-HBV1.2 high-pressure tail vein injection mouse model; details: Compound 1 10 mg/kg i.v. weekly x4; TDF 53 mg/kg gavage daily 10 days; observed 7 weeks
Description: After the mice serum were diluted 20-fold with PBS, the HBsAg and HBeAg titers of the serum were detected by using Abbott i2000SR microparticle chemiluminescence automatic detector. The serum HBV DNA was extracted by QIAamp DNA Mini Kit (Qiagen), the HBV DNA level in serum was quantified by Realtime-PCR (LightCycler 480, Roche) using DNA Amplification SYBR Green Kit (Roche), and the HBV plasmid PSM2 products with a series of concentration gradients were used as standards. The HBV primers used in this experiment were synthesized by Invitrogen (Shanghai) Trading Co., Ltd., and the primer sequences were as follows: HBV Hope-F (5′ to 3′ […]) and HBV Hope-R (5′ to 3′ […]). The liver tissues of mice were subjected to conventional formalin-fixation and paraffin-embedding, the resultant 4 μm sections were baked at 65° C. for 2 h, dehydrated with conventional ethanol gradients, infiltrated with hydrogen peroxide at room temperature for 30 min, washed with PBS for 5 min/time, 3 times in total, and blocked at room temperature for 1 h. […]

[8] = Liver damage after Compound 1 injection in HBV-infected mice (serum ALT/AST, HE staining of liver sections)
Description: as §1

[9] = biological target: T1, cIAP2 (Mus musculus, UniProt O08863); experiment: Western blot of cIAPs molecules in liver tissue after Compound 1 injection; details: 10 mg/kg i.v.
T1 construct: Western blot was used to detect the expression of cIAPs molecules in liver tissues; from tissue; host or cells: liver tissue of C57BL/6J mice (HBV model, pAAV-HBV1.2)
T1 sequence (O08863 whole entry): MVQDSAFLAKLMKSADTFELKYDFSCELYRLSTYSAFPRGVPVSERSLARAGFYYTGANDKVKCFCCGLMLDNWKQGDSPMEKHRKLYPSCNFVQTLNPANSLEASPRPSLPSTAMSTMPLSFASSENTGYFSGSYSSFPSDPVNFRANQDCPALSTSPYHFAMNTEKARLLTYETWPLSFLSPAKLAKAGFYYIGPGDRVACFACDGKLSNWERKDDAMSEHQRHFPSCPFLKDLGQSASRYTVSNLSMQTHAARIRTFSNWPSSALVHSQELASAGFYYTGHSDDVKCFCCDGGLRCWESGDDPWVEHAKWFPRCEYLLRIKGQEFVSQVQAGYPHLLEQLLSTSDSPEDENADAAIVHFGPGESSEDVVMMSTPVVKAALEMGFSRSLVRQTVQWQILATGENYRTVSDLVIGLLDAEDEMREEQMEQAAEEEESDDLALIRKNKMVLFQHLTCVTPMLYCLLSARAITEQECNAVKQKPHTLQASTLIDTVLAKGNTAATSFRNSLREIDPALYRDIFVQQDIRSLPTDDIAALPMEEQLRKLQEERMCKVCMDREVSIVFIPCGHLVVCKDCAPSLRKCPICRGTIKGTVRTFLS
Description: as §1

[10] = system: HBV; experiment: Compound 1 alone in chronic HBV infection mouse model (high-pressure tail vein injection of pAAV-HBV1.2 plasmid)
Description: Male C57/B6 mice (6-8 weeks of age, body weight 20 f 2 g) were selected to establish a high-pressure tail vein injection mouse model, in which the tail of mice was wiped with 75% alcohol, and then irradiated with a far-infrared physiotherapy device for 2 to 3 minutes so that the tail vein of mice was turgid and clearly visible. […] Each mouse was injected with 10 μg of pAAV/HBV1.2 plasmid, and the amount of injection liquid (PBS) was 10% of body weight (2 mL/20 g). On the 14th day after the injection, blood was collected to detect HBsAg, and the successfully modeled mice with HBsAg>500 IU/ml were selected for further experiments (Huang, Wu et al. 2006; Chou, Chien et al. 2015). […] There were 6-8 mice in each group, which were administered once a week for 4 consecutive times and observed for 7 weeks.
After the mice serum were diluted 20-fold with PBS, the HBsAg and HBeAg titers of the serum were detected by using Abbott i2000SR microparticle chemiluminescence automatic detector. The serum HBV DNA was extracted by QIAamp DNA Mini Kit (Qiagen), the HBV DNA level in serum was quantified by Realtime-PCR (LightCycler 480, Roche) using DNA Amplification SYBR Green Kit (Roche), and the HBV plasmid PSM2 products with a series of concentration gradients were used as standards. The HBV primers used in this experiment were synthesized by Invitrogen (Shanghai) Trading Co., Ltd., and the primer sequences were as follows: HBV Hope-F (5′ to 3′ […]) and HBV Hope-R (5′ to 3′ […]). The liver tissues of mice were subjected to conventional formalin-fixation and paraffin-embedding, the resultant 4 μm sections were baked at 65° C. for 2 h, dehydrated with conventional ethanol gradients, infiltrated with hydrogen peroxide at room temperature for 30 min, washed with PBS for 5 min/time, 3 times in total, and blocked at room temperature for 1 h. After rabbit-anti-human HBcAg (B0586, DAKO) was added and incubated in a wet box at room temperature for 1 h, a GTvision III immunohistochemical detection kit of anti-rabbit anti-mice general type (GK50075, Shanghai Gene Technology Co., Ltd.) was used for incubation of secondary antibodies and development of color, and pictures at 200× magnification were taken with a normal optical upright microscope. 60 mg of liver tissue homogenate was weighed, added with 900 μl of lysate (50 mmol/L Tris-HCl PH 7.5+1 mmol/L EDTA), placed on ice, and after all samples were processed, 5 μl of […] was added and lysis was performed on ice, and then HBV DNA in liver tissue was extracted with phenol/chloroform, dissolved by adding 15 μl of RNase free water, run on a 1% agarose gel, transferred to membrane; then a full-length HBV probe labeled with digoxin was added, stood overnight at 46° C., subjected to DIG Washing Buffer once for 5 min, added with Anti-Digoxigenin-Ap Fab fragment (11093274910, Roche), and Image Quant LAS 4000mini was used for exposure and detection.

[11] = stimulation with HBV core monopeptide (Core93-100)
[12] = Compound 1 20 mg/kg i.v. once per week, anti-PD1 antibody 200 μg/mice/time i.p. twice per week, five weeks
[13] = 10 mg/kg i.v., 12, 24, 48 hours after injection
[14] = 20 mg/kg i.v. once a week x4, on the 5th week, faster than 10 mg/kg group
[15] = Compound 1 injection groups (10 and 20 mg/kg i.v., once a week x4), up to the 7th week

SMILES: CC[C@H](NC(=O)[C@H](C)NC)C(=O)N1C[C@@H](O)C[C@H]1Cc1c(-c2[nH]c3cc(F)ccc3c2C[C@@H]2C[C@H](O)CN2C(=O)[C@H](CC)NC(=O)[C@H](C)NC)[nH]c2cc(F)ccc12 [Birinapant, reference compound]
- proportion of mice with serum HBsAg levels below the lower limit of detection ([1]; 20 mg/kg i.v. once a week): 57%
- serum HBsAg level (individual) ([1]; 20 mg/kg i.v.): decreased significantly

SMILES: CN[C@@H](C)C(=O)N[C@H]1CN(S(=O)(=O)c2cccc(S(=O)(=O)N3CC[C@H]4CC[C@@H](C(=O)NC(c5ccccc5)c5ccccc5)N4C(=O)[C@@H](NC(=O)[C@H](C)NC)C3)c2)CC[C@H]2CCC(C(=O)NC(c3ccccc3)c3ccccc3)N2C1=O (stereo partly drawn) [Compound 1]
- serum HBsAg compared with Group C (IFNα-2a) ([2]; 21st day, P 0.008): decreased significantly
- serum HBeAg compared with Group A (saline) ([2]; days 7, 14, 21 (P 0.004 on 7th day, 0.021 on 7th day as printed, 0.001 on 21st day)): statistically significant differences
- serum HBsAg compared with Group A (saline) ([2]; days 7, 14, 21 (P 0.010, 0.008, 0.004), Compound 1 10 mg/kg i.v. days 1, 7, 14, IFNα-2a plasmid-expressed): statistically significant differences
- count of infiltrated CD4+ T cells in the liver vs control [3]: significantly increased
- count of infiltrated CD8+ T cells in the liver vs control [3]: significantly increased
- total lymphocyte number in the liver vs normal saline control [3]: significantly higher
- counts of CD4+ T cells that secreted IFNγ, TNFα and IL-2 [3, 11]: increased significantly
- counts of CD8+ T cells that secreted IFNγ, TNFα and IL-2 [3, 11]: increased significantly
- apoptosis of HBcAg-positive liver cells [4]: could be induced
- clearance effect of HBsAg (overall level) vs saline injection group ([1]; 20 mg/kg i.v. once a week, five weeks): statistically significant difference
- proportion of mice with serum HBsAg levels below the lower limit of detection ([1]; 20 mg/kg i.v. once a week): 86%
- serum HBsAg level (individual) ([1]; 20 mg/kg i.v.): decreased significantly
- serum HBsAg level compared with Brinapant group ([1]; 20 mg/kg i.v., after one week, p=0.035): significantly lower than that of the Brinapant group
- clearance effect of HBsAg and HBeAg, overall comparison ([1]; same dosage and mode of administration (20 mg/kg i.v.)): superior to Birinapant
- serum HBeAg (individual) compared with Group A (saline) ([5]; 1st and 2nd weeks (P 0.029, 0.009)): statistically significant differences
- serum HBeAg compared with Group C (anti-PD1 antibody) ([5]; 1st and 2nd weeks, P week 1 0.016 (Group B), 0.007 (Group D), week 2 0.007, 0.002): decreased more significantly
- serum HBeAg level (overall) [5, 12]: significantly reduce
- serum HBsAg level (overall) [5, 12]: significantly reduce
- anti-HBV effect (conclusion) ([6]; four weeks): anti-HBV effect
- serum HBsAg clearance rate in comparison with control group [7]: statistically significant differences
- time at which serum ALT returned to normal levels ([8]; 10 mg/kg i.v.): around 48 hours
- time at which serum ALT rose to the highest value ([8]; 10 mg/kg i.v.): 12 h
- time at which serum AST returned to normal levels ([8]; 10 mg/kg i.v.): around 48 hours
- time at which serum AST rose to the highest value ([8]; 10 mg/kg i.v.): 12 h
- serum ALT change after injection [8, 13]: transient increase
- serum AST change after injection [8, 13]: transient increase
- liver tissue HE staining ([8]; 10 mg/kg i.v., 12 hours after injection, vicinity of portal areas, with lymphocyte infiltration): scattered necrotic lesions
- intrahepatic inflammation / fulminant hepatitis ([8]; after Compound 1 injection, only transient intrahepatic inflammation): did not cause fulminant hepatitis
- time at which inhibition of cIAP2 reached the strongest value [9]: 12 h
- inhibitory effect on cIAP2 in liver tissues (Western blot) ([9]; 12, 24, 48 h): strong inhibitory effect
- serum HBV DNA [10, 14]: completely eliminated
- serum HBsAg [10, 14]: completely eliminated
- HBV replication intermediate in liver tissue (Southern blot) ([10]; 7 weeks after administration, compared with saline group): no HBV replication intermediate was detected
- serum HBV DNA [10, 15]: below the detection limit
- serum HBsAg [10, 15]: below the detection limit
- HBcAg expression in liver (immunohistochemical staining) ([10]; after 7 weeks of administration): not observed

SMILES: CN[C@@H](C)C(=O)N[C@H]1CN(C(=O)Nc2ccc(NC(=O)N3CC[C@H]4CC[C@@H](C(=O)NC(c5ccccc5)c5ccccc5)N4C(=O)[C@@H](NC(=O)[C@H](C)NC)C3)cc2)CC[C@H]2CC[C@@H](C(=O)NC(c3ccccc3)c3ccccc3)N2C1=O [SF18]
- deaths during administration ([6]; 3 mice in the group): one mice died on the 2nd week and 4th week
- anti-HBV effect (conclusion) ([6]; four weeks): stronger than that of Compound 1
- decrease rate of HBeAg in mice serum ([6]; four weeks): significantly faster than those of the Compound 1 group
- decrease rate of HBsAg in mice serum ([6]; four weeks): significantly faster than those of the Compound 1 group
